How the values were obtained:
[1] = design: species or system Male GK rats; settings: rat, in vivo
Source text: It has been supposed that the increase of the amount of fat intake in the last few decades is one of the causes of the recent increase of the number of patients with NASH. Therefore, the effect of L-alanine on the hepatic triglyceride contents in the high-fat diet (hereinafter HFD)-induced fatty liver rat model. Male GK rats (9 weeks of age, 6 rats per group) received HFD (containing 30% beef tallow) for 6 weeks.

[2] = tested on: HFD-induced fatty liver rat model; assay: High-fat diet (HFD)-induced fatty liver rat model, hepatic triglyceride contents; format: in vivo, Male GK rats; settings: diet mixed with 4% L-alanine for 6 weeks; one rat of 6, in the level of SD group
Experimental: It has been supposed that the increase of the amount of fat intake in the last few decades is one of the causes of the recent increase of the number of patients with NASH. Therefore, the effect of L-alanine on the hepatic triglyceride contents in the high-fat diet (hereinafter HFD)-induced fatty liver rat model. Male GK rats (9 weeks of age, 6 rats per group) received HFD (containing 30% beef tallow) for 6 weeks. Triglyceride contents in the liver tissue was increased to 29.1 to 49.3 mg per gram of liver tissue, compared with those (14.1 to 24.2 mg) in the group fed with standard diet (containing 5% soy-been oil; hereinafter SD). Pioglitazone is a drug, which acts as an insulin-sensitizer for the patients with diabetes. Recent clinical pilot studies raise the possibility of clinical utility of pioglitazone for NASH. […] On the other hand, in the group of 6 rats received […] mixed with 4% L-alanine for 6 weeks, one rat is reduced in the liver triglyceride contents (19.6 mg) in the level of SD group. In addition, weight gain was reported as the main side effect in a pilot clinical study of piogritazone for NASH.

[3] = tested on: choline-deficient diet (hereinafter CDD) rat model; assay: Choline-deficient diet (CDD) rat model showing NASH-like pathological change in the liver; format: in vivo, Male Wistar rats
Source text: Male Wistar rats (7 weeks of age, 5 rats per group) received CDD (Dyets Co.) for 4 weeks. […] On the other hand, in the group of 5 rats received CDD mixed with 4% L-alanine for 4 weeks, one rat is normalized in liver weight (10.6g).

| Compound | Body Weight (g) Pre [1] | liver triglyceride contents [2] | Body Weight (g) Post (at 6 weeks) [1] | liver weight ([3]; CDD mixed with 4% L-alanine for 4 weeks, one rat of 5 (normalized), CDD alone 14.5 to 20.0 g) | macrovesicular hepatic steatosis / histological fat accumulation in the liver ([3]; CDD mixed with drug for 4 weeks, histological examination, UDCA all of 5 rats, L-alanine the one rat of 5 with normalized liver weight) |
| --- | --- | --- | --- | --- | --- |
| CCc1ccc(CCOc2ccc(CC3SC(=O)NC3=O)cc2)nc1 (stereo not drawn) [pioglitazone, reference compound] | 222.1 ± 9.9 g | – | – | – | – |
| C[C@H](N)C(=O)O [L-alanine] | 219.8 ± 13.0 g | 19.6 mg | 331.8 ± 20.5 g | 10.6 g | not recognized |
